Reference: ChEMBL document CHEMBL4842346, “Improving the metabolic stability of antifungal compounds based on a scaffold hopping strategy: Design, synthesis, and structure-activity relationship studies of dihydrooxazole derivatives” (Eur J Med Chem, 2021)
Values after ≈ are worked out from the molar mass of the structure shown.

Key:
Type in all cases: functional
Cryptococcus neoformans [1] = assay: Antifungal activity against Cryptococcus neoformans CGMCC2.3161 assessed as inhibition of fungal growth by NCCLS protocol based method
Aspergillus fumigatus = assay: Antifungal activity against Aspergillus fumigatus CGMCC3.7795 assessed as inhibition of fungal growth by NCCLS protocol based method
Candida albicans [2] = assay: Antifungal activity against Candida albicans CPCC400523 assessed as inhibition of fungal growth by NCCLS protocol based method
Candida albicans [3] = assay: Antifungal activity against Candida albicans SC5314 assessed as inhibition of fungal growth by NCCLS protocol based method
Candida tropicalis = assay: Antifungal activity against Candida tropicalis GIM2.183 assessed as inhibition of fungal growth by NCCLS protocol based method
Candida albicans [4] = assay: Antifungal activity against Candida albicans GIM2.194 assessed as inhibition of fungal growth by NCCLS protocol based method
Cryptococcus neoformans [5] = assay: Antifungal activity against Cryptococcus neoformans GIM2.209 assessed as inhibition of fungal growth by NCCLS protocol based method
Candida parapsilosis = assay: Antifungal activity against Candida parapsilosis GIM2.190 assessed as inhibition of fungal growth by NCCLS protocol based method; details: Lodderomyces parapsilosis
Pichia kudriavzevii = assay: Antifungal activity against Candida krusei GIM2.1 assessed as inhibition of fungal growth by NCCLS protocol based method
Candida albicans [6] = assay: Antifungal activity against fluconazole resistant Candida albicans CaR assessed as inhibition of fungal growth by NCCLS protocol based method
Candida albicans [7] = assay: Antifungal activity against fluconazole and itraconazole resistant Candida albicans 17# assessed as inhibition of fungal growth by NCCLS protocol based method

SMILES | MIC (Cryptococcus neoformans [1]) [µg/mL] | MIC (Aspergillus fumigatus) [µg/mL] | MIC (Candida albicans [2]) [µg/mL] | MIC (Candida albicans [3]) [µg/mL] | MIC (Candida tropicalis) [µg/mL] | MIC (Candida albicans [4]) [µg/mL] | MIC (Cryptococcus neoformans [5]) [µg/mL] | MIC (Candida parapsilosis) [µg/mL] | MIC (Pichia kudriavzevii) [µg/mL] | MIC (Candida albicans [6]) [µg/mL] | MIC (Candida albicans [7]) [µg/mL]
c1ccc(-c2ccc(C3=N[C@H](Cn4ccnc4)CO3)cc2)cc1 | > 64 | > 64 | > 64 | > 64 |  |  |  |  |  |  | 
O=C(c1ccccc1)C1(Cn2ccnc2)COC(c2ccc(-c3ccccc3)cc2)=N1 (stereo not drawn) |  | > 64 |  | 0.5 (≈ 1.23 µM) | > 64 | > 64 | > 64 |  |  |  | 
C[C@H]1OC(c2ccc(-c3ccccc3)cc2)=N[C@H]1Cn1ccnc1 |  | > 64 |  | > 64 | 4 (≈ 12.6 µM) | > 64 | > 64 |  |  |  | 
CN(C)C(=O)C(Cn1ccnc1)NC(=O)c1ccc(-c2ccccc2)cc1 (stereo not drawn) | > 64 | > 64 | > 64 | 4 (≈ 11 µM) |  |  |  |  |  |  | 
Fc1cc(F)cc(-c2ccc(C3=NC(Cn4cncn4)(c4ccccc4)CO3)cc2)c1 (stereo not drawn) |  | > 64 |  | > 16 | > 16 | > 16 |  | > 64 | > 64 |  | 
O=C(NC(Cn1ccnc1)C1COC1)c1ccc(-c2ccccc2)cc1 (stereo not drawn) | > 64 | > 64 | > 64 | 8 (≈ 23 µM) |  |  |  |  |  |  | 
c1ccc(CC2(Cn3ccnc3)COC(c3ccc(-c4ccccc4)cc3)=N2)cc1 (stereo not drawn) |  | > 64 |  | < 0.125 | 0.5 (≈ 1.27 µM) | 0.5 (≈ 1.27 µM) | > 64 |  |  |  | 
FC(F)(c1ccccc1)C1(Cn2ccnc2)COC(c2ccc(-c3ccccc3)cc2)=N1 (stereo not drawn) |  | > 64 |  | < 0.125 | < 0.125 | > 64 | > 64 |  |  |  | 
CC1(Cn2ccnc2)COC(c2ccc(-c3ccccc3)cc2)=N1 (stereo not drawn) |  | 0.5 (≈ 1.58 µM) |  | 2 (≈ 6.3 µM) | 4 (≈ 12.6 µM) | 8 (≈ 25.2 µM) | > 64 |  |  |  | 
O=C(c1ccc(-c2ccccc2)cc1)N1CCC[C@H]1Cn1ccnc1 | > 64 | 8 (≈ 24.1 µM) | 32 (≈ 96.6 µM) | 16 (≈ 48.3 µM) |  |  |  |  |  |  | 
Fc1ccccc1-c1ccc(C2=NC(Cn3cncn3)(c3cccc(Cl)c3)CO2)cc1 (stereo not drawn) |  | > 64 |  | 0.06 (≈ 0.139 µM) | > 16 | > 16 |  | > 64 | > 64 |  | 
Fc1cccc(C2(Cn3cncn3)COC(c3ccc(-c4ccccc4F)cc3)=N2)c1 (stereo not drawn) |  | > 64 |  | 0.06 (≈ 0.144 µM) | 0.25 (≈ 0.6 µM) | 0.06 (≈ 0.144 µM) |  | > 64 | > 64 | > 64 | > 64
Clc1ccccc1-c1ccc(C2=NC(Cn3cncn3)(c3ccccc3)CO2)cc1 (stereo not drawn) |  | > 64 |  | > 16 | > 16 | > 16 |  | > 64 | > 64 |  | 
Clc1ccc(-c2ccc(C3=NC(Cn4cncn4)(c4ccccc4)CO3)cc2)cc1 (stereo not drawn) |  | > 64 |  | > 16 | > 16 | > 16 |  | > 64 | > 64 |  | 
Clc1cccc(-c2ccc(C3=NC(Cn4cncn4)(c4ccccc4)CO3)cc2)c1 (stereo not drawn) |  | > 64 |  | > 16 | > 16 | > 16 |  | > 64 | > 64 |  | 
Fc1cc(-c2ccccc2)ccc1C1=NC(Cn2cncn2)(c2ccccc2)CO1 (stereo not drawn) |  | > 64 |  | < 0.03 | 0.06 (≈ 0.151 µM) | 0.06 (≈ 0.151 µM) |  | 16 (≈ 40.2 µM) | > 64 |  | 
CC(C)C1OC(c2ccc(-c3ccccc3)cc2)=NC1Cn1ccnc1 (stereo not drawn) |  | > 64 |  | 0.5 (≈ 1.45 µM) | < 0.125 | > 64 | > 64 |  |  |  | 
Fc1cc(C2=NC(Cn3cncn3)(c3ccccc3)CO2)ccc1-c1ccccc1 (stereo not drawn) |  | > 64 |  | < 0.03 | 0.06 (≈ 0.151 µM) | < 0.03 |  | 4 (≈ 10 µM) | 0.5 (≈ 1.25 µM) |  | 
Fc1cccc(-c2ccc(C3=NC(Cn4cncn4)(c4ccc(F)cc4F)CO3)cc2)c1 (stereo not drawn) |  | > 64 |  | < 0.03 | 0.06 (≈ 0.138 µM) | 0.06 (≈ 0.138 µM) |  | > 64 | 0.25 (≈ 0.575 µM) | 0.5 (≈ 1.15 µM) | > 64
CCC(C)n1ncn(-c2ccc(N3CCN(c4ccc(OCC5COC(Cn6cncn6)(c6ccc(Cl)cc6Cl)O5)cc4)CC3)cc2)c1=O (stereo not drawn) [ITRACONAZOLE] | < 0.125 | < 0.125 | < 0.125 | < 0.03 | < 0.125 | < 0.125 | < 0.125 | < 0.125 | < 0.125 |  | 
